The values that follow come from PMC6119295 (International Journal of Neuropsychopharmacology, 2018).

SMILES strings stand for the structures.

Data set [1] relates to C57BL6 mice. As to conditions: mouse, in vivo.
Data set [2] has as its system C57BL6 mice. The data set is described as follows: Morphine-induced analgesia in a hot plate assay. In kind it is in vivo, mouse. As to conditions: dose used in prolactin/rotarod experiments; data not shown. On the technique in general: Thermal pain tests record how soon the animal reacts.
The test system of data set [3] is rodents. As to conditions: ref Valenza et al., 2017; cited from earlier work.
Data set [4] addresses MOR (Rattus norvegicus, UniProt P33535). The data set is described as follows: Opioid receptor binding, MOR.
Data set [5] has as its target DOR (Homo sapiens, UniProt P41143). In words: Opioid receptor binding, DOR.
Data set [6] deals with C57BL6 mice. As to conditions: mouse, in vivo. This is another data set of the same source.
The subject of data set [7] is dopamine D2 receptor. As to conditions: ref Spetea et al., 2012; cited from earlier work.
The test system of data set [8] is mice. As to conditions: cited from earlier work.
For data set [9] the following is noted: up to 10 mg/kg; ref Erli et al. 2017; cited from earlier work.
For data set [10] the following is noted: ref White et al., 2015, cited from earlier work.
Data set [11] concerns caudate putamen. As to conditions: 3.2 mg/kg, ref Zhang et al., 2005, cited from earlier work.

Chain of MOR (P33535 whole entry): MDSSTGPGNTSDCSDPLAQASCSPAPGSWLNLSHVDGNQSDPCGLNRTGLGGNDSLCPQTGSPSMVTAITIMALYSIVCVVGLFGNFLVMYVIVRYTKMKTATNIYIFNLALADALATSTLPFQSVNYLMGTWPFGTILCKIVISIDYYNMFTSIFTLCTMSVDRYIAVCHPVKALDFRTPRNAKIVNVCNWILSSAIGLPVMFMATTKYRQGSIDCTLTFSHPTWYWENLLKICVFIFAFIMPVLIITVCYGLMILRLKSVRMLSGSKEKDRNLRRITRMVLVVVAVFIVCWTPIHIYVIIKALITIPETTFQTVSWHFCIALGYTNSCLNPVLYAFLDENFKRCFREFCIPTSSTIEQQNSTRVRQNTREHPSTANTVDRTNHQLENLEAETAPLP
Chain of DOR (P41143 whole entry): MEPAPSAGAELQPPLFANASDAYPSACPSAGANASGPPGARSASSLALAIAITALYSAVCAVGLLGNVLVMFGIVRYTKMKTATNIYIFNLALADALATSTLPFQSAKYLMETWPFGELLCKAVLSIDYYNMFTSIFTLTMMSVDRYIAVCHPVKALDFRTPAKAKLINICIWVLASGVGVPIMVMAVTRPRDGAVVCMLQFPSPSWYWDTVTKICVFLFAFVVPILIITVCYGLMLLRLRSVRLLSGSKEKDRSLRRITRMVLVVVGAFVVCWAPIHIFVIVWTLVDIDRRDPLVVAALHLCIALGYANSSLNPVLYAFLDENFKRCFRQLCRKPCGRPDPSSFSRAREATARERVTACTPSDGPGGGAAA

For `NC(=O)c1ccc(Oc2ccc(CN3CCC[C@H]3c3cccc(F)c3)cc2)c(F)c1` [LY2444296, (S)-3-fluoro-4-(4-((2-(3-fluorophenyl)pyrrolidin-1-yl)methyl)phenoxy)benzamide], in [1], the “Blockade of U50,488-stimulated prolactin release” value is “blocks the effects” and the “Effect of antagonist alone on serum prolactin” value is reported as “no effect on prolactin”. In addition, in data set [2], the “Effect on morphine-induced analgesia in hot plate assay” value was “does not inhibit morphine-induced analgesia”. In addition, the “Duration of action (short-acting)” value in data set [3] was less than 48 h.

On to `Oc1cccc(CCN(CCc2ccccc2)CC2CCC2)c1` [MCBPHA, N-methylcyclobutyl-N-phenylethyl-N-3-hydroxyphenylethyl-amine], for which the Ki was determined as 270 nM in data set [4] and 3 µM in data set [5]. The “Effect on serum prolactin after LY2444296 pretreatment” value in data set [1] is on record as “blocked the effect”. The “Rotarod incoordination after LY2444296 pretreatment” value in [6] was “blocked”. Moreover, the “Affinity and agonism at the dopamine D2 receptor” value in data set [7] was “low affinity and no agonism”. Besides, in data set [8] (mice, ref Spetea et al., 2012), the “Potency in peripheral analgesia (acetic acid writhing)” value was “equally potent as the well-characterized KOR agonist U50,488”. In addition, the “Efficacy in an analgesia assay in mice” value in data set [8] (ref Spetea et al. 2012, Erli et al. 2017) is given as “efficacy”. Moreover, in [9], the “Locomotor defects in the rotarod assay” value is recorded as “neither of these compounds caused locomotor defects”.

For the compound `COC(=O)[C@@H]1C[C@H](OC(=O)CSC#N)C(=O)[C@H]2[C@@]1(C)CC[C@H]1C(=O)O[C@H](c3ccoc3)C[C@]21C` [RB-64], in [10], the “Effect on the rotarod” value was “did not have an effect on the rotarod”.

With `COC(=O)[C@@H]1C[C@H](OC(C)=O)C(=O)[C@H]2[C@@]1(C)CC[C@H]1C(=O)O[C@H](c3ccoc3)C[C@]21C` [salvinorin A], in data set [11] (after administration), the “Duration of decrease of extracellular dopamine” value is on record as “at least 3 hours”. The “Decrease of extracellular dopamine in the caudate putamen” value in data set [11] (systemic) was “over 50%”. Also, in [10] (3 mg/kg), the “Time after injection at which rotarod incoordination begins returning to normal” value was not above 30 min.

In general, Ki refers to a dissociation constant, usually derived from enzyme kinetics or from competition with a known ligand. The low end stands for tighter binding, the high end for weaker binding.
